Legend:
[1] = molecular target: T1, HCV RNA-dependent RNA polymerase (Hepatitis C virus genotype 1a, UniProt P27958); experiment: Time course of HCV RdRp inhibitory effect against pre-incubation time and temperature (Examinations 3 and 4); assay type: biochemical; conditions: for Influence of pre-incubation on inhibitory effect at 2° C., 20° C. and 25° C. (FIG. 6, FIG. 7): pre-incubation at any temperature; for Influence of pre-incubation time on inhibitory effect (FIG. 5): pre-incubation time 0 to 180 min
T1 construct: HCV RNA-dependent RNA polymerase is encoded in the NS5B (nonstructural protein 5B) region of HCV; made in house; host or cells: insect cells or E. coli
Procedure: In the screening for HCV RNA-dependent RNA polymerase inhibitor, there is a dissociation of inhibitory effect as a different point between an assay method of the present invention and a prior assay method. […] Therefore, the influence of pre-incubation on the inhibitory value of enzyme inhibitor was determined. Using several compounds which evaluated RdRp inhibition in the prior assay method, the time course of HCV RdRp inhibitory effect was determined for 0 min, 15 min, 30 min, 45 min, 60 min, 90 min, 120 min, 150 min and 180 min as a pre-incubation time (FIG. 5).
Influence of pre-incubation on inhibitory value of enzyme inhibitor was determined in Examination 3. The temperature of pre-incubation in Examination 3 was changed and the time course of inhibitory effect was determined at variant temperature of pre-incubation.
Using several compounds, 3′-dUTP, compound I-1 and compound C, which evaluated RdRp inhibition in the prior assay method, the time course of HCV RdRp inhibitory effect was determined at 2° C., 20° C. and 25° C. as a pre-incubation temperature for 0 min, 20 min, 40 min, 60 min, 80 min, and 100 min as a pre-incubation time (FIG. 6, FIG. 7, FIG. 8).

[2] = molecular target: T1, HCV RNA-dependent RNA polymerase; experiment: Pre-incubation assay method with 3H-UTP (Example 1); assay type: biochemical
Procedure: A HCV RNA-dependent RNA polymerase, template RNA, primer RNA and Mg ion (Mg^2+) are pre-incubated at approximately 25° C. for approximately 1 hour. After that, substrate RNA and a test substance are added to start an enzyme reaction and measure an enzyme activity. IC50 value can be calculated by comparing with an enzyme activity measured in the absence of a test substance as well as the above prior method. An inhibitor can be selected by comparing IC50. An example of a procedure of this method is shown in the later described Example 1.
A cDNA encoding HCV RNA-dependent RNA polymerase was made by use of HCV positive human plasma and HCV RNA-dependent RNA polymerase was expressed using the insect cells or the E. coli. HCV RNA-dependent RNA polymerase in the cell extract was purified by use of an anion exchange chromatography, a heparin affinity chromatography, a polyU affinity chromatography, a cation exchange chromatography and gel filtration chromatography. The purification was performed at 4° C. and Tris buffer (pH 7.5) containing ethylenediaminetetraacetic acid (1 mM), dithiothreitol (10 mM) and glycerol (20%) was used. The enzyme purified was stored at 4° C. until use for the assays.
• 1) The buffer I ^1) (10.5 μl) containing Tris-HCl (100 mM, pH 7.5), MgCl2 (25 mM), dithiothreitol (5 mM), KCl (125 mM) and ethylenediaminetetraacetic acid (5 mM) was transferred to a polypropylene tube and then poly(A)^2) solution (100 μg/ml, 10.5 μl), oligo(U)12 ^3) solution (1 μg/ml, 10.5 μl) and water (8 μl) were added into the tube and mixed. • 2) Next, HCV RNA-dependent RNA polymerase (10.5 μl) was added into the tube and pre-incubated at 25° C. for […]. • 3) The enzyme solution pre-incubated (50 μl) was added to a test compound (5.26 μl/well) dissolved with dimethyl sulfoxide or water in a well of a 96-wells microtiter plate. • 4) Additionally, the buffer II (10.6 μl) containing Tris-HCl (100 mM, pH 7.5), MgCl2 (25 mM), dithiothreitol (5 mM), KCl (125 mM), ethylenediaminetetraacetic acid (5 mM) and UTP • 4) (2.1 μM, 1 μCi ^3H-UTP), was mixed with water (39.4 μl). The mixture (50 μl) was added into the well and mix, and then the enzyme reaction was performed at 25° C. for 30 min. • 5) After enzyme reaction for 30 min, the enzyme reaction was stopped by adding disodium ethylenediaminetetraacetic acid (50 mM, 50 μl). • 6) By use of the cell-harvester, all volume of the enzyme reaction sample was transferred onto a filtermat bound with diethylaminoethyl base (referred to as DEAE-filtermat) and washed twice for 10 sec with sodium phosphate buffer (0.25 M, pH 7.0) and once for 10 sec with de-ionized water. • 7) The DEAE-filtermat was dried at 95° C. for 15 min and transferred into a sample bag with liquid scintillater (10 ml), and then a sample bag was sealed. • 8) The radio activity was measured by a scintillation counter. • 9) The inhibitory rate was calculated from the radioactivity measured (ccpm) as follows. [formula]
The concentration of compound at 50% inhibition (IC50 value) was calculated from the compound concentration used and the inhibitory rate calculated.
When use of a compound at a μg/ml results in A % inhibition and use of a compound at β μg/ml results in B % inhibition on condition of A≧50>B the IC50 value is obtained by the calculation as follows. IC50 (μg/ml)=10^[(50−B)/(A−B)×(log^α^−log^β^)+log^β^]

[3] = with pre-incubation, I-1 0.5 μg/ml, 3′-dUTP 0.7 μM, A 100 μg/ml, B 50 μg/ml, C 25 μg/ml

T1 sequence (P27958 2421-3011): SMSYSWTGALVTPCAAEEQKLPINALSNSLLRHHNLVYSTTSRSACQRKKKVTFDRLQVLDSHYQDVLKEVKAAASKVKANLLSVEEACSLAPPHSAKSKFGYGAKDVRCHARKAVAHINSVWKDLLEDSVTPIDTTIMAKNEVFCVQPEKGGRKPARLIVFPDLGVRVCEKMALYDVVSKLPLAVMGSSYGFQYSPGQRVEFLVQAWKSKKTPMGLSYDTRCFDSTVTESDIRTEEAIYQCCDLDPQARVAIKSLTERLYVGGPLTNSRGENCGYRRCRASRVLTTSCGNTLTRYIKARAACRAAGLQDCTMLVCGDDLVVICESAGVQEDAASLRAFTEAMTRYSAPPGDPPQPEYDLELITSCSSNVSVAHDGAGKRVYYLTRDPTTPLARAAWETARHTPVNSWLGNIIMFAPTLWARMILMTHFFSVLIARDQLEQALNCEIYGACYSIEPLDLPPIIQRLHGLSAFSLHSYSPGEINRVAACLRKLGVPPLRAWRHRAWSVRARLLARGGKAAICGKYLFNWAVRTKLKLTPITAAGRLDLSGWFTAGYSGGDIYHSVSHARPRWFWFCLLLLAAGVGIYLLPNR

SMILES	Influence of pre-incubation on inhibitory effect at 2° C., 20° C. and 25° C. (FIG. 6, FIG. 7) ([1]; 0 to 100 min)	Influence of pre-incubation time on inhibitory effect (FIG. 5) [1]	Inhibitory rate (Table 2) [2, 3]	Enzyme inhibition rate in a pre-incubation assay method (FIG. 5) ([2]; with pre-incubation, same concentrations as)	Judgement in the pre-incubation method (positive / negative) ([2]; with pre-incubation)	Influence of pre-incubation on inhibitory effect at 2° C. (FIG. 8) ([1]; pre-incubation temperature 2° C., 0 to 100 min)	Influence of pre-incubation on inhibitory effect at 20° C. and 25° C. (FIG. 8) ([1]; pre-incubation temperature 20° C. and 25° C., 0 to 100 min)	inhibition at 100 µg/mL ([2]; 100 μg/ml, pre-incubation 25° C. 60 min, method of Example 1, read-out: Inhibition rate at a concentration of 100 μg/ml)	IC50 ([2]; pre-incubation 25° C. 60 min, method of Example 1)	inhibition at 0.5 µg/mL ([2]; with pre-incubation, I-1 0.5 μg/ml, 3′-dUTP 0.7 μM, A 100 μg/ml, B 50 μg/ml, C 25 μg/ml, read-out: Inhibitory rate (Table 2))
O=c1ccn([C@@H]2O[C@H](COP(=O)(O)OP(=O)(O)OP(=O)(O)O)C[C@H]2O)c(=O)[nH]1 [3′-dUTP, 3′-deoxyuridine triphosphate]	not influence by pre-incubation at any temperatures	not a large influence by pre-incubation	79%	does not change						
Cc1oc(-c2ccccc2)nc1CCOc1ccc(C=C2C(=O)NC(=O)NC2=O)cc1 [Compound A]		inhibitory effect decreased with increasing pre-incubation time	19%		negative					
O=C1NC(=O)C(=Cc2ccc(OCCc3cccc4ccccc34)cc2)C(=O)N1 [Compound B]		inhibitory effect decreased with increasing pre-incubation time	1%		negative					
CCCCC1=N/C(=C\c2ccccc2OCC(=O)O)C(=O)N1Cc1ccc(-c2ccccc2-c2nnn[nH]2)cc1 [Compound C]		inhibitory effect decreased with increasing pre-incubation time	2%		negative result	did not appear clear influence	inhibitory effect decreased greatly			
O=C(O)/C(O)=C/C(=O)c1cccc(O)c1 [Compound I-1]	not influence by pre-incubation at any temperatures				positive result			> 99%	1920 nM	62%
